From US20250032532A1, “COMBINATION OF OCTAPEPTIDE AND HIGH MOLECULAR WEIGHT HYALURONIC ACID FOR TOPICAL APPLICATION” (Alastin Skincare, Inc., priority 2022, published 2025)

Columns and labels:
[1] = tested on: Early Growth Response 3 (EGR3); assay: RNA-Seq gene expression of EGR3 in keratinocytes; format: cell-based, Human; conditions: 100 μg/ml, 24 hr
Description: (§1) Cell Lines. Human adult dermal fibroblast and keratinocyte cell lines were treated with 11 different compound treatments (plus DMSO control as treatment #12). Primary cells were plated in cell specific media at 5K or 10K cells per cm^2. Cells were plated in 48 well plates in triplicate, one cell line per plate. Media volume was 500ul per well. Outer two columns of wells were not used. Cells were cultured for 2 days in 37° C. 5% CO2 incubator. After 48 hours all the cell cultures were uniform and appeared healthy, no appreciable number of floating dead cells or evidence of vacuolization of cells that might indicate apoptotic or dying cells.
(§2) Compounds. Stocks of compounds 1 through 8 on the list below were prepared in PBS at 100× the concentration indicated in red type. […] This stock was 100× of final concentration. A 20 mg/ml stock of compound 10 (CBD) was prepared in DMSO. […]
(§3) RNA lysate preparation. […] All samples were shipped frozen on dry ice for RNA extraction, library construction and sequencing to 25 M paired end 100 bp reads per sample.
(§4) RNA-Seq. All the RNA samples were shipped frozen on dry ice for RNA extraction, library construction and sequencing to 25 M paired end 100 bp reads per sample. Differentially expressed genes were identified and pathway enrichment was assessed using the Reactome Pathway.

Hyaluronidase 2 (HYAL2) = assay: RNA-Seq gene expression of HYAL2 in keratinocytes; format: cell-based, Human; conditions: 100 μg/ml, 24 hr
Description: as §1, §2, §3, §4

[2] = tested on: Hyaluronic Acid Synthase 2 (HAS2); assay: RNA-Seq gene expression of HAS2 in keratinocytes; format: cell-based, Human; conditions: 100 μg/ml, 24 hr
Description: as §1, §2, §3, §4

Human dermal fibroblasts = assay: Octapeptide dose-response of high MW HA production (band density); format: cell-based; conditions: 72 hours
Description: Human dermal fibroblasts were treated with Octapeptide (1× and 10×; corresponding to 10 μg/ml and 100 μg/ml respectively) or left untreated. After 72 hours, the supernatant was collected, concentrated, run on an SDS-PAGE, stained and imaged. The experiment was conducted 4 times and the density of the bands from each supernatant were quantified (arbitrary units (AU)) using ImageJ. The data was graphed in FIG. 6 and represents the mean±standard deviation of the band densities for each treatment condition.

[3] = tested on: Hyaluronic Acid Synthase 2 (HAS2); assay: RNA-Seq gene expression of HAS2 in dermal fibroblasts; format: cell-based, Human; conditions: 100 μg/ml, 24 hr
Description: as §1, §2, §3, §4

Substance	upregulation of EGR3 gene expression relative to non-treated cells [1]	fold-change in HYAL2 gene expression relative to non-treated cells (Hyaluronidase 2 (HYAL2))	fold-change in HAS2 gene expression relative to non-treated cells [2]	production of high MW HA in dermal fibroblasts (Human dermal fibroblasts; 1× and 10× (10 μg/ml and 100 μg/ml))	density of high MW HA band (ImageJ) (Human dermal fibroblasts; 10× Octapeptide (100 μg/ml), 4 experiments)	fold-change in HAS2 gene expression relative to non-treated cells [3]
Hexapeptide-11	about seven	potent downregulation	excellent upregulation	–	–	–
Octapeptide: proprietary peptide designed by Alastin; in some embodiments octapeptide-45, amino acid sequence GPHGVREA (Gly-Pro-His-Gly-Val-Arg-Glu-Ala)	–	modest downregulation	–	dose-responsive increase	vast increase in signal density	excellent stimulation
